Experimental data from ChEMBL document CHEMBL1949628, “Discovery of aminopiperidine-based Smac mimetics as IAP antagonists” (Bioorg Med Chem Lett, 2012).

Assays:
[1] = biological target: T1, Baculoviral IAP repeat-containing protein 2 (Homo sapiens, UniProt Q13490); experiment: Antagonist activity at GST-tagged BIR3 domain of cIAP1 using AbuRPFK-5FAM after 20 mins by fluorescence polarization assay; format: functional
[2] = biological target: T1, Baculoviral IAP repeat-containing protein 2; experiment: Antagonist activity at cIAP1 in human MDA-MB-231 cells assessed as cIAP1 degradation after 1 hr by ELISA; format: functional, cell-based
[3] = tested on: MDA-MB-231; experiment: Antiproliferative activity against human MDA-MB-231 cells after 48 hrs by alamar blue assay; format: functional; details: MDA-MB-231, 48 h
[4] = biological target: T2, E3 ubiquitin-protein ligase XIAP (Homo sapiens, UniProt P98170); experiment: Antagonist activity at GST-tagged BIR3 domain of XIAP using AbuRPFK-5FAM after 20 mins by fluorescence polarization assay; format: functional
[5] = Lipophilicity, log D of the compound; format: physicochemical; details: octanol/water
[6] = tested on: MDA-MB-231; experiment: Antiproliferative activity against human MDA-MB-231 cells assessed as cell growth at 0.00517 uM after 48 hrs by alamar blue assay relative to control; format: functional; details: MDA-MB-231, 48 h, read-out: Activity
[7] = tested on: MDA-MB-231; experiment: Antiproliferative activity against human MDA-MB-231 cells assessed as cell growth at 1.25556 uM after 48 hrs by alamar blue assay relative to control; format: functional; details: MDA-MB-231, 48 h, read-out: Activity
[8] = tested on: MDA-MB-231; experiment: Antiproliferative activity against human MDA-MB-231 cells assessed as cell growth at 0.00172 uM after 48 hrs by alamar blue assay relative to control; format: functional; details: MDA-MB-231, 48 h, read-out: Activity
[9] = tested on: MDA-MB-231; experiment: Antiproliferative activity against human MDA-MB-231 cells assessed as cell growth at 0.41852 uM after 48 hrs by alamar blue assay relative to control; format: functional; details: MDA-MB-231, 48 h, read-out: Activity
[10] = tested on: MDA-MB-231; experiment: Antiproliferative activity against human MDA-MB-231 cells assessed as cell growth at 0.13951 uM after 48 hrs by alamar blue assay relative to control; format: functional; details: MDA-MB-231, 48 h, read-out: Activity
[11] = tested on: MDA-MB-231; experiment: Antiproliferative activity against human MDA-MB-231 cells assessed as cell growth at 0.0155 uM after 48 hrs by alamar blue assay relative to control; format: functional; details: MDA-MB-231, 48 h, read-out: Activity
[12] = tested on: MDA-MB-231; experiment: Antiproliferative activity against human MDA-MB-231 cells assessed as cell growth at 11.3 uM after 48 hrs by alamar blue assay relative to control; format: functional; details: MDA-MB-231, 48 h, read-out: Activity
[13] = tested on: MDA-MB-231; experiment: Antiproliferative activity against human MDA-MB-231 cells assessed as cell growth at 0.0465 uM after 48 hrs by alamar blue assay relative to control; format: functional; details: MDA-MB-231, 48 h, read-out: Activity
[14] = biological target: T2, E3 ubiquitin-protein ligase XIAP; experiment: Binding affinity to GST-tagged BIR3 domain of XIAP by isothermal titration calorimetry
[15] = tested on: MDA-MB-231; experiment: Antiproliferative activity against human MDA-MB-231 cells assessed as cell growth at 3.76667 uM after 48 hrs by alamar blue assay relative to control; format: functional; details: MDA-MB-231, 48 h, read-out: Activity

Compound | IC50 [1] [µM] | EC50 [2] [µM] | further results
CN[C@@H](C)C(=O)N[C@H](C(=O)N[C@H]1CCN(C(=O)OCc2ccccc2)C1)C1CCCCC1 | 0.74 |  | 
CN[C@@H](C)C(=O)N[C@H](C(=O)N[C@H]1CCCCN(Cc2ccccc2)C1)C1CCCCC1 | 0.27 |  | 
CN[C@@H](C)C(=O)N[C@H](C(=O)N[C@H]1CCN(Cc2ccccc2)C1)C1CCCCC1 | 3.38 |  | 
CN[C@@H](C)C(=O)N[C@H](C(=O)N[C@H]1CCCN(CC(c2ccccc2)c2ccccc2)C1)C1CCCCC1 | 0.062 |  | 
CN[C@@H](C)C(=O)N[C@H](C(=O)N[C@H]1CCCN(CCc2ccccc2)C1)C1CCCCC1 | 0.04 | 0.113 | GI50 [3]: 1.01 µM; IC50 [4]: > 8 µM
CN[C@@H](C)C(=O)N[C@H](C(=O)N[C@H]1CCCN(CCc2ccc([N+](=O)[O-])cc2)C1)C(C)(C)C | 0.032 | 0.06 | 
CN[C@@H](C)C(=O)N[C@H](C(=O)N(C)[C@H]1CCCN(CCc2ccccc2)C1)C1CCCCC1 | 0.044 |  | 
CN[C@@H](C)C(=O)N[C@H](C(=O)N[C@H]1CCCN(CCc2ccccc2OC)C1)C(C)(C)C | 0.05 | 0.156 | 
CN[C@@H](C)C(=O)N[C@H](C(=O)N[C@H]1CCCN(C(=O)Cc2ccccc2)C1)C1CCCCC1 | 0.13 |  | 
CN[C@@H](C)C(=O)N[C@H](C(=O)N[C@H]1CCCN(CCc2cccc(OC)c2)C1)C(C)(C)C | 0.052 | 0.164 | 
CN[C@@H](C)C(=O)N[C@H](C(=O)N[C@H]1CCCN(CCc2ccccn2)C1)C(C)(C)C | 0.301 | > 0.37 | 
CN[C@@H](C)C(=O)N[C@H](C(=O)N[C@H]1CCCN(S(=O)(=O)Cc2ccccc2)C1)C(C)(C)C | 3.89 |  | 
CN[C@@H](C)C(=O)N[C@H](C(=O)N[C@H]1CCN(CCc2ccccc2)C1)C1CCCCC1 | 0.5 |  | 
CN[C@@H](C)C(=O)N[C@H](C(=O)N1CC[C@H]2CCN(CCc3ccccc3)C[C@H]21)C1CCCCC1 |  |  | logD [5]: 2.61
CN[C@@H](C)C(=O)N[C@H](C(=O)N[C@H]1CCCN(CCCc2ccccc2)C1)C1CCCCC1 | 0.79 |  | 
CN[C@@H](C)C(=O)N[C@H](C(=O)N[C@H]1CCCN(CCc2ccc(C(F)(F)F)cc2)C1)C(C)(C)C | 0.049 | 0.3 | 
CN[C@@H](C)C(=O)N[C@H](C(=O)N[C@H]1CCCCN(CCc2ccccc2)C1)C1CCCCC1 | 0.08 |  | 
CN[C@@H](C)C(=O)N[C@H](C(=O)N[C@H]1CCCN(CCc2ccc(C)cc2)C1)C(C)(C)C | 0.03 | 0.06 | 
CN[C@@H](C)C(=O)N[C@H](C(=O)N[C@H]1CCN(C(=O)c2ccccc2)C1)C1CCCCC1 | 5.02 |  | 
CN[C@@H](C)C(=O)N[C@H](C(=O)N[C@H]1CCCN(CCc2ccc(F)cc2)C1)C(C)(C)C | 0.02 | 0.06 | 
CN[C@@H](C)C(=O)N[C@H](C(=O)N[C@H]1CCN(CCCc2ccccc2)C1)C1CCCCC1 | 0.74 |  | 
CN[C@@H](C)C(=O)N[C@H](C(=O)N[C@H]1CCN(C(=O)Cc2ccccc2)C1)C1CCCCC1 | 0.78 |  | 
CN[C@@H](C)C(=O)N[C@H](C(=O)N[C@H]1CCCN(CCc2ccc(OC)cc2)C1)C(C)(C)C | 0.09 | 0.158 | 
CN[C@@H](C)C(=O)N[C@H](C(=O)N[C@H]1CCCN(CCc2c[nH]c3ccccc23)C1)C(C)(C)C | 0.115 | 0.185 | 

More lines, main results first:

IC50 [1] [µM] | EC50 [2] [µM] | Compound | further results
0.068 | 0.279 | CN[C@@H](C)C(=O)N[C@H](C(=O)N[C@H]1CCCN(CCc2cccc(F)c2)C1)C1CCCCC1 | 
0.018 | 0.058 | CN[C@@H](C)C(=O)N[C@H](C(=O)N[C@H]1CCCN(CCc2ccc(F)cc2)C1)C1CCCCC1 | 
0.024 | 0.117 | CN[C@@H](C)C(=O)N[C@H](C(=O)N[C@H]1CCCN(CCc2ccc(Cl)cc2)C1)C(C)(C)C | 
5.75 |  | CN[C@@H](C)C(=O)N[C@H](C(=O)N[C@H]1CCCN(S(=O)(=O)c2ccccc2)C1)C(C)(C)C | 
0.45 |  | CN[C@@H](C)C(=O)N[C@H](C(=O)N[C@H]1CCCN(C(=O)OCc2ccccc2)C1)C1CCCCC1 | 
0.004 | 0.005 | CN[C@@H](C)C(=O)N[C@H](C(=O)N[C@H]1C[C@@H]2CC[C@H]1N(CCc1ccccc1)C2)C1CCCCC1 | growth at 0.00517 µM [6]: 82.2%; growth at 1.25556 µM [7]: -12.2%; growth at 0.00172 µM [8]: 97%; growth at 0.41852 µM [9]: 3.61%; growth at 0.13951 µM [10]: 37.5%; GI50 [3]: 0.1 µM; IC50 [4]: 0.365 µM; growth at 0.0155 µM [11]: 84%; growth at 11.3 µM [12]: 8.61%; growth at 0.0465 µM [13]: 73.5%; logD [5]: 1.64; Kd [14]: 0.9 µM; growth at 3.76667 µM [15]: -11%
3.36 |  | CN[C@@H](C)C(=O)N[C@H](C(=O)N[C@H]1CCCN(C(=O)c2ccccc2)C1)C1CCCCC1 | 
1.99 |  | CN[C@@H](C)C(=O)N[C@H](C(=O)N[C@H]1CCCN([C@@H]2CCCc3ccccc32)C1)C1CCCCC1 | 
0.042 | 0.068 | CN[C@@H](C)C(=O)N[C@H](C(=O)N[C@H]1CCCN(CCc2ccc(O)cc2)C1)C(C)(C)C | 
0.033 | 0.104 | CN[C@@H](C)C(=O)N[C@H](C(=O)N[C@H]1CCCN(CCc2ccccc2F)C1)C1CCCCC1 | 
0.026 |  | CN[C@@H](C)C(=O)N[C@H](C(=O)N[C@H]1CCCN(CCc2ccccc2)C1)C(C)(C)C | 
0.593 | > 0.37 | CN[C@@H](C)C(=O)N[C@H](C(=O)N[C@H]1CCCN(CCc2ccncc2)C1)C(C)(C)C | 
1.69 |  | CN[C@@H](C)C(=O)N[C@H](C(=O)N[C@H]1CCCN(Cc2ccccc2)C1)C1CCCCC1 | 
0.024 | 0.071 | CN[C@@H](C)C(=O)N[C@H](C(=O)N[C@H]1CCCN(CCc2ccc(Br)cc2)C1)C(C)(C)C | 
